Source: patent US20070249844A1, “Pyrazole derivatives and process for the production thereof” (Ihara Chemical Industry Co., Ltd., priority 2002, published 2007)

SMILES | melting point
CCn1nc(C(F)(F)F)c(C)c1O | 150 to 152 °C
CCCn1nc(C(F)(F)F)c(C)c1O | 133 to 134 °C
Br.CCn1nc(C(F)(F)F)c(CSC(=N)N)c1OC(F)F | 139 to 141 °C
Cn1nc(C(F)(F)F)c(CSC2=NOC(C)(C)C2)c1OC(F)F | 39 to 40 °C
Cn1nc(C(F)(F)F)c(CS(=O)(=O)C2=NOCC2)c1OC(F)F | 115 to 117 °C
Cn1nc(C(F)(F)F)c(CS(=O)(=O)C2=NOC3CCCCC23)c1OC(F)F (stereo not drawn) | 97 to 98 °C
CC1CC(S(=O)(=O)Cc2c(C(F)(F)F)nn(C)c2OC(F)F)=NO1 (stereo not drawn) | 106 to 107 °C
CC(C)C1CC(S(=O)(=O)Cc2c(C(F)(F)F)nn(C)c2OC(F)F)=NO1 (stereo not drawn) | 85 to 86 °C
CCCn1nc(C(F)(F)F)c(CS(=O)(=O)C2=NOC(C)(C)C2)c1OCC(F)(F)F | 49 to 51 °C
CC1(C)CC(S(=O)(=O)Cc2c(C(F)(F)F)nn(C(C)(C)C)c2OCC(F)(F)F)=NO1 | 91 to 92 °C
CCC1(C)CC(S(=O)(=O)Cc2c(C(F)(F)F)nn(C)c2OC(F)F)=NO1 (stereo not drawn) | 77 to 78 °C
Cn1nc(C(F)(F)F)c(CS(=O)(=O)C2=NOC(C)(C3CC3)C2)c1OC(F)F (stereo not drawn) | 96 to 98 °C

More lines, now with the values ahead:

melting point | SMILES
93 to 95 °C | Cn1nc(C(F)(F)F)c(CS(=O)(=O)C2=NOC(C)(C)C2)c1OCC(F)(F)F
89 to 91 °C | Cn1nc(C(F)(F)F)c(CS(=O)(=O)C2=NOC(C)(C)C2)c1OCC(F)F
88 to 89 °C | CC(C)n1nc(C(F)(F)F)c(CS(=O)(=O)C2=NOC(C)(C)C2)c1OCC(F)F
109 to 110 °C | CC(C)n1nc(C(F)(F)F)c(CS(=O)(=O)C2=NOC(C)(C)C2)c1OCC(F)(F)F
84 to 86 °C | CCn1nc(C(F)(F)F)c(CS(=O)(=O)C2=NOC(C)(C)C2)c1OCC(F)(F)F
98 to 100 °C | CCn1nc(C(F)(F)F)c(CS(=O)(=O)C2=NOC(C)(C)C2)c1OC(F)F
